In patent US9034825B2, “Treatment of myocardial injury with humanin analogs” (Albert Einstein College of Medicine of Yeshiva University, priority 2007, dated 2015):
“Also recorded” adds a separate entry of the source.

Assays:
Type in all cases: in vivo, rat
[1] = test system: phospho STAT-3 in hypothalamus; experiment: Western blot of hypothalamic STAT-3 phosphorylation after ICV infusion; conditions: within an hour of ICV HN infusion
Experimental: The indicated tissues were homogenized in 20 mM MOPS, 2 mM EGTA, 5 mM EDTA, 30 mM sodium fluoride, 40 mM beta-glycerophosphate, 10 mM sodium pyrophosphate, 2 mM orthovanadate, 0.5% NP-40 and complete protease inhibitor cocktail (Roche, Indianapolis, Ind., USA) and centrifuged at 12,000 g for 15 min and the supernatant was harvested while carefully avoiding the lipid layer on top. Protein concentration was measured with a BCA protein quantification kit (Pierce, Rockford, Ill., USA). Protein extracts were separated on 4-12% NuPAGE (Invitrogen, Carlsbad, Calif., USA) gels and were blotted onto Immobilon FL PVDF (Millipore, Billerica, Mass., USA). […] After three washes in TBS-T and a final wash in TBS the blots were scanned using the LI-COR Odyssey (LI-COR, Lincoln, Nebr., USA) and quantified using Odyssey 2.0 software based on direct fluorescence measurement.
For acute signaling studies, rats were injected ICV with either aCSF, 20 μg of HN or F6A (dissolved in aCSF) over 5 min, and sacrificed 30 min later. […] Samples were also obtained from these tissues at the end of the clamp and western blot analysis was performed as described previously (Muzumdar et al. 2003) The blots were scanned using the LI-COR Odyssey (LI-COR, Lincoln, Nebr., USA) and quantified using Odyssey 2.0 software based on direct fluorescence measurement. […]

[2] = test system: Sprague-Dawley rats; experiment: Intravenous infusion of humanin or analogs during hyperinsulinemic clamp; conditions: IV 0.0375 mg/kg/hr, clamp
[3] = test system: Sprague-Dawley rats; experiment: ICV infusion of IGF-1, IGFBP-3 or NLS mutant with basal and hyperinsulinemic clamp
Excerpt: Young (3 mo old, n=6 in each group), male Sprague-Dawley rats (Charles River Laboratories, Wilmington, Mass.) were used for this study. Rats were housed in individual cages and were subjected to a standard light (6:00 AM to 6:00 PM)—dark (6:00 PM to 6:00 AM) cycle. All rats were fed ad libitum using regular rat chow that consisted of 64% carbohydrate, 30% protein, and 6% fat with a physiological fuel value of 3.3-kcal/g chow. In the rats that received ICV infusions, 2 to 4 weeks before the in vivo study, the rats were anesthetized by inhalation of isoflurane and a cannula was placed ICV in the third ventricle for infusions of IGF-1, IGFBP-3 or IGFBP-3 mutant or artificial cerebrospinal fluid (aCSF), as previously described (Muzumdar et al., 2003) (FIG. 1). Briefly, a 26-gauge stainless steel guide cannula (Plastics One, Roanoke, Va.) was chronically implanted into the third ventricles using the following coordinates from bregma: anterior-posterior; +0.2 mm dorsal-ventral; −9.0 mm medial-lateral; 0.0 directly on the mid-sagittal suture, followed by a 28-gauge dummy cannula, inserted to prevent clogging of the guide cannula. The implant was secured to the skull with Caulk Grip dental cement, and the skin was closed over the implant using wound clips. The recovery of rats from the surgical stress was monitored with daily weight, food intake, and movement.
Upon recovery of body weight, usually a week, indwelling catheters were placed in the right internal jugular vein and in the left carotid artery (Muzumdar et al., 2003). The venous catheter was extended to the level of the right atrium, and the arterial catheter was advanced to the level of the aortic arch. Recovery was continued until body weight was within 3% of the pre-operative weight (˜4-6 days). In the rats that received peripheral IGFBP-3, only the vascular catheters were placed.
Studies were performed in unrestrained rats using the insulin clamp technique, in combination with high performance liquid chromatography-purified [3-^3H]glucose and [U-^14C]lactate infusions, as described previously (Liu et al., 1998). Food was removed for ˜5 h before the in vivo protocol. All studies lasted 360 min and included a 120-min equilibration period, a 120-min basal period for assessment of the basal glucose turnover, and a 120-min hyperinsulinemic clamp period. All rats received ICV infusions (bolus followed by continuous ICV infusions of IGF-1, IGFBP-3, IGFBP-3 mutant or aCSF, depending on the group) over the entire 6 hours of the study. At the beginning of the basal period and 120 min before starting the glucose/insulin infusions, a primed-continuous infusion of high performance liquid chromatography-purified [3-^3H]glucose (NEN Life Science Products, Boston, Mass.; 20 μCi of bolus, 0.2 μCi/min) was initiated and maintained throughout the remaining 4 h of the study. In the final 2 hours of the study, the rats were subjected to hyperinsulinemic clamp. The protocol followed during the insulin clamp study was similar to that previously described (Liu et al., 1998). Briefly, a primed-continuous infusion of regular insulin (3 milliunits/kg·min) was administered, and a variable infusion of a 25% glucose solution was started and periodically adjusted to clamp the plasma glucose concentration at 7-8 mM. To prevent endogenous insulin secretion and in order to control for possible effects of ICV infusions on the endocrine pancreas, somatostatin (1.5 μg/kg·min) was also infused in all the groups. [U-^14C]Lactate (5 μCi of bolus/0.25 μCi/min) was infused during the last 10 min of the study.
A bolus of hIGF-1 (0.3 mcg, a gift from Tercica, South San Francisco) was followed by a continuous infusion over 6 hours (total dose of 1 mcg, 0.06 μg/kg/hr).
A bolus of non glycosylated hIGFBP-3 (1.25 μg, generously provided by Celtrix, Mountain View Calif.) was followed by a continuous infusion over 6 hours (total dose of 5.25 mcg, 0.26 μg/kg/hr). […]

[4] = ICV IGFBP-3, insulin clamp 3 mU/kg/min
[5] = ICV IGFBP-3 or NLS mutant over 6 h, basal period
[6] = ICV IGFBP-3 or NLS mutant over 6 h, hyperinsulinemic clamp
[7] = ICV infusion, hyperinsulinemic clamp

Row | Molecule | increase in STAT-3 phosphorylation in hypothalamic tissues [1] [fold] | peripheral insulin action [2] | decrease in peripheral glucose uptake [3, 4] [%] | increase in hepatic glucose production compared to controls [3, 4] [%] | Glycogen synthesis, Basal [3, 5] | Glycolysis, Basal [3, 5] [mg/kg/min] | HGP, Basal [3, 5] [mg/kg/min] | Glycogen synthesis, Clamp [3, 6] | Glycolysis, Clamp [3, 6] [mg/kg/min] | HGP, Clamp [3, 6] [mg/kg/min] | Rd, Clamp [3, 6] [mg/kg/min] | GIR, Clamp ([3]; ICV IGFBP-3 or NLS mutant over 6 h, hyperinsulinemic clamp 3 mU/kg/min) [mg/kg/min] | FFA ([3]; ICV IGFBP-3 or NLS mutant over 6 h, hyperinsulinemic clamp, last 60 min) [mEq/l] | h-IGFBP-3 ([3]; ICV IGFBP-3 or NLS mutant over 6 h, peripheral plasma) [ng/mL] | gluconeogenesis [3, 7] [mg/kg/min] | glycogenolysis / hepatic glucose fluxes compared to controls [3, 7] | insulin induced suppression of FFA compared to controls [3, 7] | whole body glucose disposal / peripheral glucose uptake (Rd) compared to controls ([3]; ICV infusion, hyperinsulinemic clamp, final 60 min) | infused human peptide in the rat periphery ([3]; after ICV infusion)
1 | CC[C@H](C)[C@H](NC(=O)[C@H](CCC(=O)O)NC(=O)[C@H](CO)NC(=O)[C@@H](NC(=O)[C@H](CC(C)C)NC(=O)[C@H](CC(C)C)NC(=O)[C@H](CC(C)C)NC(=O)[C@H](CC(C)C)NC(=O)[C@H](CS)NC(=O)[C@H](CO)NC(=O)[C@H](Cc1ccccc1)NC(=O)CNC(=O)[C@H](CCCNC(=N)N)NC(=O)[C@@H]1CCCN1C(=O)[C@H](C)NC(=O)[C@@H](N)CCSC)[C@@H](C)O)C(=O)N[C@@H](CC(=O)O)C(=O)N[C@@H](CC(C)C)C(=O)N1CCC[C@H]1C(=O)N[C@H](C(=O)N[C@@H](CCCCN)C(=O)N[C@@H](CCCNC(=N)N)C(=O)N[C@@H](CCCNC(=N)N)C(=O)N[C@@H](C)C(=O)O)C(C)C [Humanin, maprgfscll lltseidlpv krra] | 10 | Neither HN, nor the non-BP3-binding F6AHN (at doses of 0.0375 mg/kg/hr) altered peripheral insulin action |  |  |  |  |  |  |  |  |  |  |  |  |  |  |  |  | 
2 | IGFBP-3: non glycosylated hIGFBP-3 (IGF binding protein-3), provided by Celtrix |  |  | ~30 | 45 | 4.62 ± 0.69 | 9.33 ± 1.27 | 13.95 ± 0.99 | 4.46 ± 0.68 | 9.95 ± 1.05 | 7.08 ± 0.59 | 14.01 ± 0.82 | 6.95 ± 1.11 | 0.72 ± 0.06 | 0 | 0.37 ± 0.1 | significant increase | significantly reduced | significantly decreased | No hIGFBP-3 was detected; also recorded: No human IGF-1, hIGFBP-3 or NLS-IGFBP-3 was identified
